Several values for one entry are separate records, joined by “and”; a condition that tells them apart may be missing. Identical values can stand only once.
What was measured:
ovine COX-1 = target: T1, ovine COX-1 (Ovis aries, UniProt P05979); test: biochemical; assay type: biochemical; conditions: EIA, sigmoidal concentration-inhibition curves, concentrations 0.03 μM to 300 µM
T1 construct: purchased Cayman Chemical 560131
T1 sequence (P05979 25-600): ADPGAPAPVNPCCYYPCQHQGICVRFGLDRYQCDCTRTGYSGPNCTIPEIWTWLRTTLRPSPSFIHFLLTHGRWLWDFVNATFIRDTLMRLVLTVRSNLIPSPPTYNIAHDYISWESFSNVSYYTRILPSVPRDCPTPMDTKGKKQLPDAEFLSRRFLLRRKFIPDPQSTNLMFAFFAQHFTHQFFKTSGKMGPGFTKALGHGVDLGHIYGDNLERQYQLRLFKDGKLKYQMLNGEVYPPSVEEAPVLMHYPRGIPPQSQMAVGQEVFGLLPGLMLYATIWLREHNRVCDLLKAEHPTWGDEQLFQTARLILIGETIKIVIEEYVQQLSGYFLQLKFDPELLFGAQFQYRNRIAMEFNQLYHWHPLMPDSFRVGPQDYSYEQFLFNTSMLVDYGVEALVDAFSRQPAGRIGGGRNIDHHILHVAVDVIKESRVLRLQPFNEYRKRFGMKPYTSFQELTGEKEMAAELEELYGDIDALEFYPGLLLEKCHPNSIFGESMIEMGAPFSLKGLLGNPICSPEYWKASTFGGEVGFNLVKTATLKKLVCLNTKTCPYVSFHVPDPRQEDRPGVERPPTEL
Description: (§1) The COX-1/2 inhibitory activities of the tested compounds were evaluated using the enzyme immunoassay (EIA) method against ovine COX-1 and human recombinant COX-2. The selectivity index was calculated as the ratio IC50 COX-1/IC50 COX-2.
(§2) The kit utilizes an enzyme immunoassay (EIA) in order to quantify the prostanoid product resulted from COX catalyzed reaction. The inhibitory potential of our molecules was tested against the ovine COX-1 and human recombinant COX-2 enzymes. The COX inhibition reaction was performed by a 10 min incubation at 37 °C in the presence of reaction buffer, heme, COX-1 or COX-2 enzymes, and the tested inhibitor. The reaction was initiated by adding arachidonic acid and incubating at 37 °C for 2 min. Enzymatic catalysis was stopped by adding HCl. Stannous chloride was subsequently added to perform the reduction of COX-derived prostaglandin H2 (PGH2) produced in the reaction of COX leading to prostaglandin F2α (PGF2α). PGF2α was then quantified using the EIA kit. Prostanoid containing solutions obtained from the COX reaction were then diluted and transferred to plates that were pre-coated with monoclonal anti-rabbit IgG antibodies produced in mouse. They were incubated overnight in the presence of PG-acetylcholinesterase (AchE) conjugate and specific PG antiserum. The reaction mixture was then removed from the wells, the plates were washed to remove all unbound reagents and Ellman’s reagent (which contains the AchE substrate) was then added for plate development. […] The intensity of the color is inversely proportional to the amount of PG found in the sample. The PG quantity was determined using a PG standard curve generated on the same plate. All determinations were performed according to the manufacturer’s instructions and similar with other literature reports. The IC50 values were calculated using a sigmoidal concentration-inhibition response curve (duplicate determinations). Every compound was assayed in the COX reaction on a range of concentrations from 0.03 μM to 300 µM in two distinct determinations. Each COX reaction sample was then EIA assayed at two dilutions and each dilution was tested in duplicate. […] Using IC50 values, the selectivity index (SI) was calculated as the ratio IC50COX-1/IC50COX-2.

human recombinant COX-2 = target: T2, human recombinant COX-2 (Homo sapiens, UniProt P35354); test: biochemical; assay type: biochemical; conditions: for Selectivity index SI = IC50 COX-1/IC50 COX-2: ratio of ovine COX-1 to human recombinant COX-2 IC50
T2 construct: purchased Cayman Chemical 560131
T2 sequence (P35354 18-604): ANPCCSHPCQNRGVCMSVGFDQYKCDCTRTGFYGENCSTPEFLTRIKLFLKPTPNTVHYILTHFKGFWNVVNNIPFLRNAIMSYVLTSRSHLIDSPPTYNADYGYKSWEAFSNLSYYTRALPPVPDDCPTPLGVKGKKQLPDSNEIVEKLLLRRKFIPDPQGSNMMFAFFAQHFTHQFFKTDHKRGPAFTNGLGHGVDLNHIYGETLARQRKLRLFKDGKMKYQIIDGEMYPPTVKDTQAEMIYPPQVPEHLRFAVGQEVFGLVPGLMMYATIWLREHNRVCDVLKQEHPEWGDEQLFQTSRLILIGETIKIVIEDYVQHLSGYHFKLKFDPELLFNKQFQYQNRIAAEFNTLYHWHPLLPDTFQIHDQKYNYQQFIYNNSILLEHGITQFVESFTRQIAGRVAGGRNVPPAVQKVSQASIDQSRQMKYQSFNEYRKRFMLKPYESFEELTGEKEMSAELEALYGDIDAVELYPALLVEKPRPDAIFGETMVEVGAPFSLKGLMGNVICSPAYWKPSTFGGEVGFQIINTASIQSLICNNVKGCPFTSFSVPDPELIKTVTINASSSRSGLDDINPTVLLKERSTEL
Description: as §1, §2

[1] = design: method as in earlier work; conditions: induced acute inflammation experimental model; cited from earlier work
[2] = human recombinant COX-2, EIA, sigmoidal concentration-inhibition curves, concentrations 0.03 μM to 300 µM

COc1cc(-c2nc(C)c(C(C)=O)s2)cc(OC)c1OC [A11]
IC50 (ovine COX-1): 76 µM
IC50 (human recombinant COX-2; [2]): 216 µM
Selectivity index SI = IC50 COX-1/IC50 COX-2 (human recombinant COX-2): 0.35

COc1cc(-c2nc(-c3ccccc3)cs2)cc(OC)c1OC [A2]
in vivo anti-inflammatory effect [1]: lacked the in vivo effect
IC50 (ovine COX-1): 34.5 µM
IC50 COX-1 (ovine COX-1): potent
IC50 (human recombinant COX-2; [2]): 23.3 µM
Selectivity index SI = IC50 COX-1/IC50 COX-2 (human recombinant COX-2): 1.48

COc1cc(-c2nc(CCl)cs2)cc(OC)c1OC [A10]
IC50 (human recombinant COX-2; [2]): 107 µM
Selectivity index SI = IC50 COX-1/IC50 COX-2 (human recombinant COX-2): 5.69

COc1cc(-c2nc(-c3ccc([N+](=O)[O-])cc3)cs2)cc(OC)c1OC [A3]
in vivo anti-inflammatory effect [1]: efficient
IC50 (ovine COX-1): 236 µM
IC50 (human recombinant COX-2; [2]): 25.5 µM
Selectivity index SI = IC50 COX-1/IC50 COX-2 (human recombinant COX-2): 9.242 and 9.24

COc1cc(-c2nc(-c3ccccc3)c(C)s2)cc(OC)c1OC [A1]
IC50 (ovine COX-1): 140 µM
IC50 (human recombinant COX-2; [2]): > 300 µM
IC50 COX-2 (human recombinant COX-2; [2]): practically inactive

COc1cc(-c2nc(-c3ccc(Cl)cc3)cs2)cc(OC)c1OC [A8]
in vivo anti-inflammatory effect [1]: efficient
IC50 (ovine COX-1): 31.5 µM
IC50 COX-1 (ovine COX-1): potent
IC50 (human recombinant COX-2; [2]): 25.6 µM
Selectivity index SI = IC50 COX-1/IC50 COX-2 (human recombinant COX-2): 1.22

COc1cc(-c2nc(-c3ccc(C(N)=O)c(O)c3)cs2)cc(OC)c1OC [A7]
IC50 (ovine COX-1): 54.7 µM
IC50 COX-1 (ovine COX-1): potent
IC50 (human recombinant COX-2; [2]): 106 µM
Selectivity index SI = IC50 COX-1/IC50 COX-2 (human recombinant COX-2): 0.51

CCOC(=O)Cc1csc(-c2cc(OC)c(OC)c(OC)c2)n1 [A13]
IC50 (ovine COX-1): 109 µM
IC50 (human recombinant COX-2; [2]): 229 µM
Selectivity index SI = IC50 COX-1/IC50 COX-2 (human recombinant COX-2): 0.47

COc1cc(-c2nc(-c3cccc4ccccc34)cs2)cc(OC)c1OC [A6]
IC50 (ovine COX-1): 26.9 µM
IC50 (human recombinant COX-2; [2]): 28.9 µM
Selectivity index SI = IC50 COX-1/IC50 COX-2 (human recombinant COX-2): 0.93

COc1cc(-c2nc(-c3sc(-c4ccccc4)nc3C)cs2)cc(OC)c1OC [A9]
IC50 (ovine COX-1): 83.2 µM
IC50 (human recombinant COX-2; [2]): 70.9 µM
Selectivity index SI = IC50 COX-1/IC50 COX-2 (human recombinant COX-2): 1.17

COc1ccc(-c2csc(-c3cc(OC)c(OC)c(OC)c3)n2)cc1 [A4]
IC50 (ovine COX-1): 50.4 µM
IC50 COX-1 (ovine COX-1): potent
IC50 (human recombinant COX-2; [2]): 75 µM
Selectivity index SI = IC50 COX-1/IC50 COX-2 (human recombinant COX-2): 0.67

CCOC(=O)c1sc(-c2cc(OC)c(OC)c(OC)c2)nc1C [A12]
IC50 (human recombinant COX-2; [2]): 273 µM
Selectivity index SI = IC50 COX-1/IC50 COX-2 (human recombinant COX-2): 1.5

COc1cc(-c2nc(-c3ccc(C#N)cc3)cs2)cc(OC)c1OC [A5]
IC50 (ovine COX-1): 73.3 µM
IC50 (human recombinant COX-2; [2]): 148 µM
Selectivity index SI = IC50 COX-1/IC50 COX-2 (human recombinant COX-2): 0.49
